In ChEMBL document CHEMBL3882729, “Receptor-type kinase modulators and methods of use” (2009):

Key:
[1] = target: Vascular endothelial growth factor receptor 2 (Homo sapiens, UniProt P35968); test: Inhibition of recombinant human N-terminal GST-fused KDR (D807 to V1356 residues) expressed in baculovirus infected […] insect Sf9 cells using poly-EY as substrate after 240 mins by luciferase coupled chemiluminescence assay
Ephrin type-B receptor 4 = target: T1, Ephrin type-B receptor 4 (Homo sapiens, UniProt P54760); test: Inhibition of recombinant human N-terminal His6-tagged EphB4 kinase domain (E605 to E890 residues) expressed in baculovirus using poly-AEKY as substrate after 150 mins in presence of gamma33P-ATP by liquid scintillation spectrometry
T1 sequence (P54760 whole entry): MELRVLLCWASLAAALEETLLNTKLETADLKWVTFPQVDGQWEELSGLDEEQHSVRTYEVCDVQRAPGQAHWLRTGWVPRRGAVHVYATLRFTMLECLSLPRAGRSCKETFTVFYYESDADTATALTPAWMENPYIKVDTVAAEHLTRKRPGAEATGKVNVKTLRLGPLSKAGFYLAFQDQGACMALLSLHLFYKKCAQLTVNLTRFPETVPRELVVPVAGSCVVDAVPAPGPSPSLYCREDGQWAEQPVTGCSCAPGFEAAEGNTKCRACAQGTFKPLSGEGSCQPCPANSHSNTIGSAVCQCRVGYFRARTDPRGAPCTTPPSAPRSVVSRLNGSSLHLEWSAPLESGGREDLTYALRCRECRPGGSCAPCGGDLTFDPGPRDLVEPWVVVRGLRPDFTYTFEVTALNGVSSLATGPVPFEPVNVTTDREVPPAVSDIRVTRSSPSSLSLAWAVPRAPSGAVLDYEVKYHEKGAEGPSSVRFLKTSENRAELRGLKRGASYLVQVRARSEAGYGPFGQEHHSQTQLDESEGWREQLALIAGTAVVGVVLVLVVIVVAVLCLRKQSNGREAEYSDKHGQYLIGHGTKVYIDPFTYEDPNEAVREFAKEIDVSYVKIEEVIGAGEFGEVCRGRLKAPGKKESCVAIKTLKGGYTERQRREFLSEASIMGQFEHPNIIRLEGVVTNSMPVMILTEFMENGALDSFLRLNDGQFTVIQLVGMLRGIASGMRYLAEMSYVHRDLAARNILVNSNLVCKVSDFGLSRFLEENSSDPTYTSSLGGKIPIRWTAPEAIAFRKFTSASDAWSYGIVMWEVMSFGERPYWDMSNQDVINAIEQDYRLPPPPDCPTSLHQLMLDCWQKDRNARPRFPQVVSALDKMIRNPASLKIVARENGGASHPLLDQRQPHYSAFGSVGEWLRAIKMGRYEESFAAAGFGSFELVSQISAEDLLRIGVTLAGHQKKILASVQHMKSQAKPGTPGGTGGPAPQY

Ephrin type-A receptor 2 = Ephrin type-A receptor 2 (Homo sapiens, UniProt P29317); test: Inhibition of recombinant human N-terminal His6-tagged EphA2 (N598 to R890 residues) expressed in baculovirus using poly-EY as substrate after 180 mins by luciferase coupled chemiluminescence assay
Ephrin type-A receptor 2, sequence (P29317 whole entry, the tested form may be a part): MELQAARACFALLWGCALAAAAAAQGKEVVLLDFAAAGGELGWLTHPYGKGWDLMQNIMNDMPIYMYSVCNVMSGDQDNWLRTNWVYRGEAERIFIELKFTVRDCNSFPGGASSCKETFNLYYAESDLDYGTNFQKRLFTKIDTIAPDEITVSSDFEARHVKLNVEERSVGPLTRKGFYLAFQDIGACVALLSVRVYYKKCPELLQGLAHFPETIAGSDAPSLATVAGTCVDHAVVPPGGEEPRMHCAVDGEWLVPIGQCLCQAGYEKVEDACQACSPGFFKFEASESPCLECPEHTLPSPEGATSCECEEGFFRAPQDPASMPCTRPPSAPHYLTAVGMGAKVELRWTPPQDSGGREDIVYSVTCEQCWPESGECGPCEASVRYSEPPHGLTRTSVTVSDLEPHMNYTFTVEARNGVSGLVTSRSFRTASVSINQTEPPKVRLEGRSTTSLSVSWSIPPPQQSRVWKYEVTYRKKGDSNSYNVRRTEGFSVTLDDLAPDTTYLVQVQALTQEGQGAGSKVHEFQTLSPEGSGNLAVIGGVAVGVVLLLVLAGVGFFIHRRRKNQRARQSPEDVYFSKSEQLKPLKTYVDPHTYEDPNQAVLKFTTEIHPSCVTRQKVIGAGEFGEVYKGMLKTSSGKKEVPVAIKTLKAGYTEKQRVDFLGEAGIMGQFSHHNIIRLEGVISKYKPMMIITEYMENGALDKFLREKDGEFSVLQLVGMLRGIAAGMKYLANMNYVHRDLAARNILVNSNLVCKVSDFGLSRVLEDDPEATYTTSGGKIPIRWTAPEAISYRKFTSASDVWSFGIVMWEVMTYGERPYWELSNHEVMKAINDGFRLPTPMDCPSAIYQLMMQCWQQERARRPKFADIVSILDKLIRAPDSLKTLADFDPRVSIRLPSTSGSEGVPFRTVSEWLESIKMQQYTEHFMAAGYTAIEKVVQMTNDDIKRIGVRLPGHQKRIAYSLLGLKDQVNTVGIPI

Vascular endothelial growth factor receptor 2, sequence (P35968 whole entry, the tested form may be a part): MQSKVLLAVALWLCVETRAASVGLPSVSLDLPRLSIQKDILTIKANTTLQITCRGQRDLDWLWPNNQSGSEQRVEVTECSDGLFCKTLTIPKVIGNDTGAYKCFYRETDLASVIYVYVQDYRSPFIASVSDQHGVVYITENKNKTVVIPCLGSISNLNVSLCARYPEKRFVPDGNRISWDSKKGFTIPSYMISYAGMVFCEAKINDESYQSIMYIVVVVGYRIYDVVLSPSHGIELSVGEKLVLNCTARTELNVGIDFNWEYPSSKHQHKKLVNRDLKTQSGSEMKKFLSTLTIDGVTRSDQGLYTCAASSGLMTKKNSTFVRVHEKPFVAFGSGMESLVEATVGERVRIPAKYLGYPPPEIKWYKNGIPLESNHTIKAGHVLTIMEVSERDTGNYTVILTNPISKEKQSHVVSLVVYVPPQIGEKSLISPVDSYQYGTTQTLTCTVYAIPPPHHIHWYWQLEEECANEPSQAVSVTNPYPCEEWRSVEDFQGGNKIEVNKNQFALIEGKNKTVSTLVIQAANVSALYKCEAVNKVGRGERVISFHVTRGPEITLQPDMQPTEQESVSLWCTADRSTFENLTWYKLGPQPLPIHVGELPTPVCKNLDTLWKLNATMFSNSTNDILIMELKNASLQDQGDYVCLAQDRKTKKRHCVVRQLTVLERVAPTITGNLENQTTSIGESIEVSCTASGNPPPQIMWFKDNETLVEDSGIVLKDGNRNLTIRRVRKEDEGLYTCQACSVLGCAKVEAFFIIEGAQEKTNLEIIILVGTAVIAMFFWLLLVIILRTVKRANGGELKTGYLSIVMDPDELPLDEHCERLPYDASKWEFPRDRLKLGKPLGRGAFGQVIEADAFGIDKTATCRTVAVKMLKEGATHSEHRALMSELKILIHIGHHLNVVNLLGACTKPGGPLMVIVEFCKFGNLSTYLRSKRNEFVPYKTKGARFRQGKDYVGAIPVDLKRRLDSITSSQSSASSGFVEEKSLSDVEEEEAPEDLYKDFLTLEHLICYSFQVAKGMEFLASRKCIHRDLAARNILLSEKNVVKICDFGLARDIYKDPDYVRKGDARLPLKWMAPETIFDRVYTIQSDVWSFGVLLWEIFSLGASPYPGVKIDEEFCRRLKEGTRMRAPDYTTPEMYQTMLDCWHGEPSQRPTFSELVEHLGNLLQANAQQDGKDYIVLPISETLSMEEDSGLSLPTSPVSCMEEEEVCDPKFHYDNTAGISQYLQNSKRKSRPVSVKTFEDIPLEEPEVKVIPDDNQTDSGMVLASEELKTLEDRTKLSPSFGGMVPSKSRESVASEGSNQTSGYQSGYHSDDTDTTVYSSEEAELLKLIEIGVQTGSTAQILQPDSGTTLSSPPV

Row | Structure (SMILES) | IC50 [1] [nM] | IC50 (Ephrin type-B receptor 4) [nM] | IC50 (Ephrin type-A receptor 2) [nM]
1 | COc1cc2c(Nc3ccc(Cl)c(Cl)c3)ncnc2cc1OCC1CN(CC2CCCCC2)CCO1 (stereo unspecified) | 50 to 1000 | 50 to 1000 | 50 to 1000
2 | COc1cc2c(Nc3ccc(Cl)c(Cl)c3)ncnc2cc1OCC1CN(S(=O)(=O)Cc2ccccc2)CCO1 (stereo unspecified) | 50 to 1000 | 50 to 1000 | 50 to 1000
3 | COc1cc2c(Nc3ccc(Cl)c(Cl)c3)ncnc2cc1OCC1CN(CC=C(C)C)CCO1 (stereo unspecified) | 50 to 1000 | 50 to 1000 | 50 to 1000
4 | CCC(CC)CN1CCOC(COc2cc3ncnc(Nc4ccc(Cl)c(Cl)c4)c3cc2OC)C1 (stereo unspecified) | 50 to 1000 | 50 to 1000 | 50 to 1000
5 | CCN1CCN(CC)C(COc2cc3ncnc(Nc4ccc(Cl)c(Cl)c4)c3cc2OC)C1 (stereo unspecified) | 1000 to 20000 | 50 to 1000 | 50 to 1000
6 | COc1cc2c(Nc3ccc(Cl)c(Cl)c3)ncnc2cc1OCC1CN(C(C)=O)CCO1 (stereo unspecified) | 50 to 1000 | < 50 | 50 to 1000
7 | COc1cc2c(Nc3ccc(Cl)c(Cl)c3)ncnc2cc1OCc1nc(CS(=O)(=O)c2ccccn2)no1 | 50 to 1000 | 50 to 1000 | 50 to 1000
8 | COc1cc2c(Nc3ccc(Cl)c(Cl)c3)ncnc2cc1OCC1CN(c2ccncc2)CCO1 (stereo unspecified) | < 50 | < 50 | < 50
9 | COc1cc2c(Nc3ccc(Cl)c(Cl)c3)ncnc2cc1OCC1CN(C(=O)c2c(F)ccc(F)c2F)CCO1 (stereo unspecified) | 50 to 1000 | 50 to 1000 | 50 to 1000
10 | COc1cc2c(Nc3ccc(Cl)c(Cl)c3)ncnc2cc1OCC1CN(S(=O)(=O)c2ccccc2)CCO1 (stereo unspecified) | 50 to 1000 | 50 to 1000 | 1000 to 20000
11 | COc1cc2c(Nc3ccc(Br)cc3F)ncnc2cc1OCC1CN(C)CCO1 (stereo unspecified) | < 50 | 50 to 1000 | 50 to 1000
12 | COc1cc2c(Nc3ccc(Cl)c(Cl)c3)ncnc2cc1OCC1CN(/C(=N/C#N)N2CCN(C)CC2)CCO1 (stereo unspecified) | < 50 | < 50 | 50 to 1000
13 | COc1cc2c(Nc3ccc(Cl)c(Cl)c3)ncnc2cc1OCC1CN(C(C)C(C)=O)CCO1 (stereo unspecified) | 50 to 1000 | 50 to 1000 | 50 to 1000
14 | COc1cc2c(Nc3ccc(Cl)c(Cl)c3)ncnc2cc1OCC1CN(S(=O)(=O)c2ccc(C)cc2)CCO1 (stereo unspecified) | 50 to 1000 | 1000 to 20000 | 1000 to 20000
15 | CCCCCC(=O)N1CCOC(COc2cc3ncnc(Nc4ccc(Cl)c(Cl)c4)c3cc2OC)C1 (stereo unspecified) | 50 to 1000 | 50 to 1000 | 50 to 1000
16 | COc1cc2c(Nc3cc(Cl)ccc3F)ncnc2cc1OCC1CN(C)CCO1 (stereo unspecified) | 50 to 1000 | 50 to 1000 | 50 to 1000
17 | CCCC(CCC)C(=O)N1CCOC(COc2cc3ncnc(Nc4ccc(Cl)c(Cl)c4)c3cc2OC)C1 (stereo unspecified) | 50 to 1000 | 50 to 1000 | 50 to 1000
18 | COc1cc2c(Nc3ccc(Cl)c(Cl)c3)ncnc2cc1OCC1CN(C(=O)c2ccoc2)CCO1 (stereo unspecified) | 50 to 1000 | < 50 | 50 to 1000
19 | COc1cc2c(Nc3ccc(Cl)c(Cl)c3)ncnc2cc1OCC1CN(CCCCF)CCO1 (stereo unspecified) | < 50 | < 50 | 50 to 1000
20 | COc1cc2c(Nc3ccc(Cl)c(Cl)c3)ncnc2cc1OCC1CN(C(=O)CCc2ccccc2)CCO1 (stereo unspecified) | 50 to 1000 | 50 to 1000 | 50 to 1000
21 | COc1cc2c(Nc3ccc(Cl)c(Cl)c3)ncnc2cc1OCC1CN(C(=O)c2ccc3c(c2)OCO3)CCO1 (stereo unspecified) | 50 to 1000 | 50 to 1000 | 50 to 1000
22 | COc1cc2c(Nc3ccc(Cl)c(Cl)c3)ncnc2cc1OCC1CN(C(=O)Cc2ccc(Cl)cc2)CCO1 (stereo unspecified) | 50 to 1000 | 50 to 1000 | 1000 to 20000
23 | C#CCN1CCOC(COc2cc3ncnc(Nc4ccc(Cl)c(Cl)c4)c3cc2OC)C1 (stereo unspecified) | < 50 | < 50 | < 50
24 | COc1cc2c(Nc3ccc(Cl)c(Cl)c3)ncnc2cc1OCC1CN(Cc2ccc(F)cc2)CCO1 (stereo unspecified) | 50 to 1000 | 50 to 1000 | 50 to 1000
25 | COc1cc2c(Nc3ccc(Cl)c(Cl)c3)ncnc2cc1OCC1CN(Cc2ccccn2)CCO1 (stereo unspecified) | < 50 | 50 to 1000 | 50 to 1000
26 | COc1cc2c(Nc3ccc(Cl)c(Cl)c3)ncnc2cc1OCC1CN(C(=O)CC(=O)O)CCO1 (stereo unspecified) | < 50 | < 50 | < 50

Row | Structure (SMILES) | IC50 [1] [nM] | IC50 (Ephrin type-B receptor 4) [nM] | IC50 (Ephrin type-A receptor 2) [nM]
27 | CCC(=O)CN1CCOC(COc2cc3ncnc(Nc4ccc(Cl)c(Cl)c4)c3cc2OC)C1 (stereo unspecified) | 50 to 1000 | 50 to 1000 | 50 to 1000
28 | COc1cc(Nc2ncnc3cc(OCC4CN(C)CCO4)c(OC)cc23)c(OC)cc1Cl (stereo unspecified) | 1000 to 20000 | 50 to 1000 | 50 to 1000
29 | CCCN1CCOC(COc2cc3ncnc(Nc4ccc(Cl)c(Cl)c4)c3cc2OC)C1 (stereo unspecified) | 50 to 1000 | < 50 | 50 to 1000
30 | CCC(CC)CN1CCCOC(COc2cc3ncnc(Nc4ccc(Cl)c(Cl)c4)c3cc2OC)C1 (stereo unspecified) | 50 to 1000 | 50 to 1000 | 50 to 1000
31 | C=CCCCCCCN1CCOC(COc2cc3ncnc(Nc4ccc(Cl)c(Cl)c4)c3cc2OC)C1 (stereo unspecified) | 50 to 1000 | 50 to 1000 | 50 to 1000
32 | COc1cc2c(Nc3ccc(Cl)cc3F)ncnc2cc1OCC1CN(C)CCO1 (stereo unspecified) | < 50 | 50 to 1000 | 50 to 1000
33 | COc1cc2c(Nc3ccc(Cl)c(Cl)c3)ncnc2cc1OCC1CN(CCC(C)C)CCCO1 (stereo unspecified) | 50 to 1000 | 50 to 1000 | 50 to 1000
34 | C=CCCCN1CCOC(COc2cc3ncnc(Nc4ccc(Cl)c(Cl)c4)c3cc2OC)C1 (stereo unspecified) | < 50 | < 50 | 50 to 1000
35 | COc1cc2c(Nc3ccc(Cl)c(Cl)c3)ncnc2cc1OCC1CN(CCC2CCCCC2)CCCO1 (stereo unspecified) | 50 to 1000 | 50 to 1000 | 50 to 1000
36 | COc1cc2c(Nc3ccc(Br)cc3Cl)ncnc2cc1OCC1CN(C)CCO1 (stereo unspecified) | 50 to 1000 | 50 to 1000 | 50 to 1000
37 | COc1cc2c(Nc3cccc(Br)c3Cl)ncnc2cc1OCC1CN(C)CCO1 (stereo unspecified) | 50 to 1000 | < 50 | 50 to 1000
38 | CCCCC(CC)C(=O)N1CCOC(COc2cc3ncnc(Nc4ccc(Cl)c(Cl)c4)c3cc2OC)C1 (stereo unspecified) | 50 to 1000 | 50 to 1000 | 50 to 1000
39 | COc1cc2c(Nc3cccc(Cl)c3C)ncnc2cc1OCC1CN(C)CCO1 (stereo unspecified) | 50 to 1000 | < 50 | < 50
40 | CCCCc1ccc(C(=O)N2CCOC(COc3cc4ncnc(Nc5ccc(Cl)c(Cl)c5)c4cc3OC)C2)cc1 (stereo unspecified) | 1000 to 20000 | 1000 to 20000 | 1000 to 20000
41 | COc1cc2c(Nc3ccc(Br)cc3F)ncnc2cc1OCC1CCN(C(N)=NC#N)CC1 | < 50 | 50 to 1000 | 50 to 1000
42 | COc1cc2c(Nc3ccc(Cl)c(Cl)c3)ncnc2cc1OCC1CN(CCCCCCO)CCO1 (stereo unspecified) | < 50 | < 50 | 50 to 1000
43 | C=CCN1CCOC(COc2cc3ncnc(Nc4ccc(Cl)c(Cl)c4)c3cc2OC)C1 (stereo unspecified) | 50 to 1000 | 50 to 1000 | 50 to 1000
44 | COc1cc2c(Nc3cccc(Br)c3C)ncnc2cc1OCC1CN(C)CCO1 (stereo unspecified) | 50 to 1000 | 50 to 1000 | 50 to 1000
45 | COCCNC(=NC#N)N1CCOC(COc2cc3ncnc(Nc4ccc(Cl)c(Cl)c4)c3cc2OC)C1 (stereo unspecified) | 50 to 1000 | < 50 | 50 to 1000
46 | COc1cc2c(Nc3ccc(Cl)c(Cl)c3)ncnc2cc1OCC1CN(C(=O)c2cc(F)ccc2F)CCO1 (stereo unspecified) | 50 to 1000 | 50 to 1000 | 50 to 1000
47 | COc1cc2c(Nc3ccc(Cl)c(Cl)c3)ncnc2cc1OCC1CN(CC2CCCCC2)CCCO1 (stereo unspecified) | < 50 | 50 to 1000 | 50 to 1000
48 | COc1cc2c(Nc3ccc(Cl)c(Cl)c3)ncnc2cc1OCC1CN(C(=O)c2ccc(Cl)nc2)CCO1 (stereo unspecified) | 50 to 1000 | < 50 | 50 to 1000
49 | COc1cc2c(Nc3ccc(Cl)c(Cl)c3)ncnc2cc1OCC1CN(C(=O)CCC(C)C)CCO1 (stereo unspecified) | 50 to 1000 | 50 to 1000 | 50 to 1000
50 | COc1cc2c(Nc3ccc(Cl)c(Br)c3)ncnc2cc1OCC1CN(C)CCO1 (stereo unspecified) | 50 to 1000 | < 50 | 50 to 1000
51 | CCC1(C)CN(C)CC(COc2cc3ncnc(Nc4ccc(Cl)c(Cl)c4)c3cc2OC)O1 (stereo unspecified) | 50 to 1000 | 50 to 1000 | 50 to 1000
52 | CCCCCCCCN1CCOC(COc2cc3ncnc(Nc4ccc(Cl)c(Cl)c4)c3cc2OC)C1 (stereo unspecified) | 1000 to 20000 | 50 to 1000 | 1000 to 20000
